Read-outs that look alike come from different tables or passages of the source. *1 amine or outer side, *2 acyl side, *3 side chain or, on linkers, in order; H or OH if unused. Where a SMILES comes first, the peptide text is derived from it. Bridges are numbered along the chain shown (N, C = ends). [ ]: non-standard residue; d: D form. The star is where a group is joined. hPhe(3,5-F2-4-CF3) = N[C@@H](CCc1cc(F)c(C(F)(F)F)c(F)c1)C(=O)O; hPhe(3-Cl-4-CF3) = N[C@@H](CCc1ccc(C(F)(F)F)c(Cl)c1)C(=O)O; NPrPhe(4-CF3) = CCCN[C@@H](Cc1ccc(C(F)(F)F)cc1)C(=O)O; X30 = C=CCCN([C@@H](Cc1ccc(C)cc1)C(=O)[*:2])[*:1]; Pip(4,4-F2) = O=C(O)[C@@H]1CC(F)(F)CCN1; NMeGly(cPent) = CN[C@H](C(=O)O)C1CCCC1; NMeAllylGly = C=CC[C@H](NC)C(=O)O; NMeD = CN[C@@H](CC(=O)O)C(=O)O; NMeL = CN[C@@H](CC(C)C)C(=O)O; αMeV = CC(C)[C@](C)(N)C(=O)O; Morpholide = C1CN(*)CCO1; Ac5c = NC1(C(=O)O)CCCC1; Aze = O=C(O)[C@@H]1CCN1; Ac4c = NC1(C(=O)O)CCC1; NEtG = CCNCC(=O)O; Sar = CNCC(=O)O
Key:
[1] = molecular target: GDP-bound NRAS wild-type protein (Homo sapiens, UniProt P01111); experiment: Binding to NRAS by surface plasmon resonance (SPR), Single Cycle Kinetics; conditions: for NRAS/KRAS (ratio of KD value for NRAS to KD value for KRAS) / NRAS/KRAS (ratio of KD value with respect to NRAS to KD value with respect to KRAS): SPR, GDP-bound NRAS wild-type protein vs GDP-bound KRAS wild-type protein; for NRAS/KRAS (ratio of KD value with respect to GDP-bound NRAS wild-type protein to KD value with respect to KRAS): SPR KD ratio NRAS/KRAS, class symbols
Sequence of GDP-bound NRAS wild-type protein (P01111 whole entry): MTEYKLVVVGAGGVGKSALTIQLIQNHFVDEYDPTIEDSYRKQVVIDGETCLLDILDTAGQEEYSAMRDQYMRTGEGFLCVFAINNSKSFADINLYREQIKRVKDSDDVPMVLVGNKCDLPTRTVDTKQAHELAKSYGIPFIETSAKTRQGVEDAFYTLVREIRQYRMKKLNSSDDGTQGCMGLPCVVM

[2] = molecular target: GDP-bound KRAS wild-type protein (Homo sapiens, UniProt P01116); experiment: Binding to KRAS by surface plasmon resonance (SPR), Single Cycle Kinetics; conditions: GDP-bound KRAS wild-type protein, read-out: KRAS KD
Sequence of GDP-bound KRAS wild-type protein (P01116 whole entry): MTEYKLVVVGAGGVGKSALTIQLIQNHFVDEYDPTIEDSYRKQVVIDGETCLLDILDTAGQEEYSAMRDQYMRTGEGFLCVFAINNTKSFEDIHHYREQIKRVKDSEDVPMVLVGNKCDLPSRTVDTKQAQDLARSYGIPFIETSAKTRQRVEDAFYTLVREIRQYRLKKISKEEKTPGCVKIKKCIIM

[3] = molecular target: GDP-bound HRAS wild-type protein (Homo sapiens, UniProt P01112); experiment: Binding to HRAS by surface plasmon resonance (SPR), Single Cycle Kinetics; conditions: for HRAS/KRAS (ratio of KD value for HRAS to KD value for KRAS) / HRAS/KRAS (ratio of KD value with respect to HRAS to KD value with respect to KRAS): SPR, GDP-bound HRAS wild-type protein vs GDP-bound KRAS wild-type protein; for HRAS/KRAS (ratio of KD value with respect to GDP-bound HRAS wild-type protein to KD value with respect to KRAS): SPR KD ratio HRAS/KRAS, class symbols
Sequence of GDP-bound HRAS wild-type protein (P01112 whole entry): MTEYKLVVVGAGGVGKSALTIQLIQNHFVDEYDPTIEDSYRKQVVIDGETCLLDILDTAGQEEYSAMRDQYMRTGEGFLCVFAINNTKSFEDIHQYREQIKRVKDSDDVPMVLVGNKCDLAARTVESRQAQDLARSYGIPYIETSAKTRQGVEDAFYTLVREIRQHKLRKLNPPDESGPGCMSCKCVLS

[4] = SPR Single Cycle Kinetics, 1:1 binding model

SMILES | NRAS/KRAS (ratio of KD value for NRAS to KD value for KRAS) [1] | Kd [2, 4] | HRAS/KRAS (ratio of KD value for HRAS to KD value for KRAS) [3] | NRAS/KRAS (ratio of KD value with respect to NRAS to KD value with respect to KRAS) [1] | HRAS/KRAS (ratio of KD value with respect to HRAS to KD value with respect to KRAS) [3] | also measured
CCCN1C(=O)CN(C)C(=O)CN(CC)C(=O)[C@H]([C@@H](C)CC)NC(=O)[C@H](CC(C)C)N(C)C(=O)C[C@@H](C(=O)N2CCOCC2)N(C)C(=O)[C@H](C2CCCC2)N(C)C(=O)C2(CCCC2)NC(=O)[C@@H]2CC(F)(F)CCN2C(=O)[C@H](CCc2ccc(C(F)(F)F)c(Cl)c2)NC(=O)CN(C)C(=O)[C@@H]1Cc1ccc(C(F)(F)F)cc1 [PP0298] ([NMeL]I[NEtG][Sar][NPrPhe(4-CF3)][Sar][hPhe(3-Cl-4-CF3)][Pip(4,4-F2)][Ac5c][NMeGly(cPent)][NMeD]-Morpholide; lactam N-11) | B (a compound having 3 or more and less than 10 is denoted as B) | 3000 pM | C (A compound having a KD ratio of 0.1 or more and less than 3 is denoted as C) |  |  | 
CCC(CC)[C@H]1C(=O)N(C)[C@H](C(=O)N(C)C)CC(=O)N(C)[C@H]2CCC/C=C/c3ccc(cc3)C[C@@H](C(=O)N(C)CC(=O)N[C@@H](CCc3ccc(Cl)c(Cl)c3)C(=O)N3CCC[C@H]3C(=O)NC3(CC(C)(C)C3)C(=O)N1C)N1CC/C=C\C[C@@H](C1=O)N(C)C(=O)CN(C)C(=O)[C@H]([C@@H](C)CC)NC2=O [PP2603] |  | 440 pM |  |  |  | NRAS/KRAS (ratio of KD value with respect to GDP-bound NRAS wild-type protein to KD value with respect to KRAS) [1]: AA (a compound having 20 or more is denoted as AA); HRAS/KRAS (ratio of KD value with respect to GDP-bound HRAS wild-type protein to KD value with respect to KRAS) [3]: A (a compound having 10 or more and less than 20 is denoted as A)
CCCN1C(=O)[C@@H]2CCN2C(=O)CN(C)C(=O)[C@H]([C@@H](C)CC)NC(=O)[C@H](CC(C)C)N(C)C(=O)C[C@@H](C(=O)N2CCOCC2)NC(=O)[C@H](C2CCCC2)N(C)C(=O)C2(CCC2)NC(=O)[C@@H]2CCCN2C(=O)[C@H](CCc2ccc(C(F)(F)F)c(Cl)c2)NC(=O)CN(C)C(=O)[C@@H]1Cc1ccc(C(F)(F)F)cc1 [PP0350] ([NMeL]I[Sar][Aze][NPrPhe(4-CF3)][Sar][hPhe(3-Cl-4-CF3)]P[Ac4c][NMeGly(cPent)]D-Morpholide; lactam N-11) | C (A compound having a KD ratio of 0.1 or more and less than 3 is denoted as C) | 1100 pM | B (a compound having 3 or more and less than 10 is denoted as B) |  |  | 
CCO[C@@H]1C[C@H]2C(=O)NC3(CCC3)C(=O)N(C)[C@@H](C3CCCC3)C(=O)N(CC)[C@H](C(=O)N3CCOCC3)CC(=O)N(C)[C@@H](CCOC)C(=O)N[C@@H]([C@@H](C)CC)C(=O)N(C)CC(=O)N(C)[C@H]3CCCCCN(C3=O)[C@@H](Cc3ccc(C(F)(F)F)cc3)C(=O)N(C)CC(=O)N[C@@H](CCc3cc(F)c(C(F)(F)F)c(F)c3)C(=O)N2C1 [PP0947] | A (a compound having 10 or more and less than 20 is denoted as A) |  | A (a compound having 10 or more and less than 20 is denoted as A) |  |  | Kd ([2]; SPR, Single Cycle Kinetics): 3400 pM
CCO[C@H]1CCN2C(=O)[C@H](CCc3cc(F)c(C(F)(F)F)c(F)c3)NC(=O)CN(C)C(=O)[C@H](Cc3ccc(C(F)(F)F)cc3)N3CCCC[C@@H](C3=O)N(C)C(=O)CN(C)C(=O)[C@H]([C@@H](C)CC)NC(=O)[C@H](CC(C)C)N(C)C(=O)C[C@@H](C(=O)N3CCOCC3)N(C)C(=O)[C@H](C3CCCC3)N(C)C(=O)C3(CCC3)NC(=O)[C@H]12 [PP1076] | B (a compound having 3 or more and less than 10 is denoted as B) |  | B (a compound having 3 or more and less than 10 is denoted as B) |  |  | Kd ([2]; SPR, Single Cycle Kinetics): 68 pM
CCO[C@@H]1C[C@H]2C(=O)NC3(CCC3)C(=O)N(C)[C@@H](C3CCCC3)C(=O)N(CCC3CCC3)[C@H](C(=O)N(C)C)CC(=O)N(C)[C@@H](CC)C(=O)N[C@@H]([C@@H](C)CC)C(=O)N(C)CC(=O)N(C)[C@H]3CCCCCN(C3=O)[C@@H](Cc3ccc(C(F)(F)F)cc3)C(=O)N(C)CC(=O)N[C@@H](CCc3cc(F)c(C(F)(F)F)c(F)c3)C(=O)N2C1 [PP0635] |  | 2700 pM |  | B (a compound having 3 or more and less than 10 is denoted as B) | B (a compound having 3 or more and less than 10 is denoted as B) | 
C=CCCN1C(=O)[C@H](CC=C)N(C)C(=O)CN(C)C(=O)[C@H]([C@@H](C)CC)NC(=O)[C@H](CC(C)C)N(C)C(=O)C[C@@H](C(=O)N2CCOCC2)N(C)C(=O)[C@H](C2CCCC2)N(C)C(=O)C2(CCCC2)NC(=O)[C@@H]2CCCN2C(=O)[C@H](CCc2ccc(C(F)(F)F)c(Cl)c2)NC(=O)CN(C)C(=O)[C@@H]1Cc1ccc(C)cc1 [PP0140] ([NMeL]I[Sar][NMeAllylGly][X30][Sar][hPhe(3-Cl-4-CF3)]P[Ac5c][NMeGly(cPent)][NMeD]-Morpholide; lactam N-11) | C (A compound having a KD ratio of 0.1 or more and less than 3 is denoted as C) | 800000 pM | B (a compound having 3 or more and less than 10 is denoted as B) |  |  | 
CCO[C@@H]1C[C@H]2C(=O)NC3(CCC3)C(=O)N(C)[C@@H](C3CCCC3)C(=O)N(C)[C@H](C(=O)N3CCOCC3)CC(=O)N(C)[C@@H](CC(C)C)C(=O)N[C@@H]([C@@H](C)CC)C(=O)N(C)CC(=O)N(C)[C@H]3CCCCCN(C3=O)[C@@H](Cc3ccc(F)cc3OC)C(=O)N(C)CC(=O)N[C@@H](CCc3cc(F)c(C(F)(F)F)c(F)c3)C(=O)N2C1 [PP0924] | B (a compound having 3 or more and less than 10 is denoted as B) |  | B (a compound having 3 or more and less than 10 is denoted as B) |  |  | Kd ([2]; SPR, Single Cycle Kinetics): 820 pM
CCC[C@H]1C(=O)N[C@@H]([C@@H](C)CC)C(=O)N(C)CC(=O)N(C)[C@H]2C/C=C\CCN(C2=O)[C@@H](Cc2ccc(C(F)(F)F)cc2)C(=O)N(C)CC(=O)N[C@@H](CCc2cc(F)c(C(F)F)c(F)c2)C(=O)N2C[C@H](OCC)C[C@H]2C(=O)NC2(CC(C)(C)C2)C(=O)N(C)[C@@H](C(CC)CC)C(=O)N(C)[C@H](C(=O)N(C)C)CC(=O)N1C [PP2781] |  | 1500 pM |  |  |  | NRAS/KRAS (ratio of KD value with respect to GDP-bound NRAS wild-type protein to KD value with respect to KRAS) [1]: AA (a compound having 20 or more is denoted as AA); HRAS/KRAS (ratio of KD value with respect to GDP-bound HRAS wild-type protein to KD value with respect to KRAS) [3]: A (a compound having 10 or more and less than 20 is denoted as A)
CC[C@H](C)[C@@H]1NC(=O)[C@H](CC2CCCC2)N(C)C(=O)C[C@@H](C(=O)N(C)C)N(C)C(=O)[C@H](C2CCCC2)N(C)C(=O)C2(CCC2)NC(=O)[C@@H]2C[C@@H](F)CN2C(=O)[C@H](CCc2cc(F)c(C(F)(F)F)c(F)c2)NC(=O)CN(C)C(=O)[C@H](Cc2ccc(C(F)(F)F)cc2)N2CC/C=C\C[C@@H](C2=O)N(C)C(=O)CN(C)C1=O [PP1502] |  |  |  |  |  | NRAS/KRAS (ratio of KD value for NRAS to KD value for KRAS) ([1]; KD ratio class): A (a compound having 10 or more and less than 20 is denoted as A); Kd ([2]; SPR, Single Cycle Kinetics, 1:1 binding model): 38 pM; HRAS/KRAS (ratio of KD value for HRAS to KD value for KRAS) ([3]; KD ratio class): A (a compound having 10 or more and less than 20 is denoted as A)
CC[C@H](C)[C@@H]1NC(=O)[C@H](CC(C)C)N(C)C(=O)C[C@@H](C(=O)N2CCOCC2)N(C)C(=O)[C@H](C2CCCC2)N(C)C(=O)C2(CCCC2)NC(=O)[C@@H]2CCCN2C(=O)[C@H](CCc2cc(F)c(C(F)(F)F)c(F)c2)NC(=O)CN(C)C(=O)[C@H](Cc2ccc(C(F)(F)F)cc2)N2CCCC[C@@H](C2=O)N(C)C(=O)CNC1=O [PP0542] |  | 110 pM |  | B (a compound having 3 or more and less than 10 is denoted as B) | B (a compound having 3 or more and less than 10 is denoted as B) | 
CCCN1C(=O)CN(C)C(=O)CN(C)C(=O)[C@H]([C@@H](C)CC)NC(=O)[C@H](CC(C)C)N(C)C(=O)C[C@@H](C(=O)N(C)C)N(C)C(=O)[C@H](C2CCCC2)N(C)C(=O)[C@](C)(C(C)C)NC(=O)[C@@H]2CCCN2C(=O)[C@H](CCc2cc(F)c(C(F)(F)F)c(F)c2)NC(=O)CN(C)C(=O)[C@@H]1Cc1ccc(C(F)(F)F)cc1 [PP0735] ([NMeL]I[Sar][Sar][NPrPhe(4-CF3)][Sar][hPhe(3,5-F2-4-CF3)]P[αMeV][NMeGly(cPent)][NMeD]-NMe2; lactam N-11) |  | 270 pM |  | B (a compound having 3 or more and less than 10 is denoted as B) | C (A compound having a KD ratio of 0.1 or more and less than 3 is denoted as C) | 
CCC[C@H]1C(=O)N[C@@H]([C@@H](C)CC)C(=O)N(C)CC(=O)N(C)[C@H]2CCCCN(C2=O)[C@@H](Cc2ccc(C(F)(F)F)cc2)C(=O)N(C)CC(=O)N[C@@H](CCc2cc(F)c(C(F)(F)F)c(F)c2)C(=O)N2C[C@H](OCC)C[C@H]2C(=O)NC2(CCC2)C(=O)N(C)[C@@H](C2CCCC2)C(=O)N(C)[C@H](C(=O)N2CCOCC2)CC(=O)N1C [PP0709] |  | 30 pM |  | C (A compound having a KD ratio of 0.1 or more and less than 3 is denoted as C) | B (a compound having 3 or more and less than 10 is denoted as B) | 

Reference: patent US20240158446A1, “CYCLIC COMPOUND HAVING SELECTIVE INHIBITORY ACTION ON KRAS OVER HRAS AND NRAS” (CHUGAI SEIYAKU KABUSHIKI KAISHA, priority 2021, published 2024)
